Reference: patent publication US11890288B2, “Sulfonamide or sulfinamide compound having effect of inducing BRD4 protein degradation and pharmaceutical use thereof” (MITSUBISHI TANABE PHARMA CORPORATION, priority 2020, dated 2024)

What was measured:
[1] = test system: human chronic myeloid leukemia K562 cell; test: Cytotoxic action on K562 cells (WST-8, 96 hr); assay type: cell-based; settings: K562, 96 hr
Protocol: (§1) The cytotoxic action of the compound of the present invention against human cancer cells was evaluated in vitro. In this experiment, (+)-JQ1 (Nature volume 468, pages 1067-1073 (23 Dec. 2010)) known to have an inhibitory activity on the binding of BRD4 protein and a ligand therefor was used as a positive control drug. Respective cells were suspended in 10% FBS/RPMI1640, seeded in a 96 well plate and cultured at 5% CO2, 37° C. overnight. A test compound dissolved in DMSO was diluted with 10% FBS/RPMI1640 and added and the cells were further cultured for 96 hr. After culturing, the viable cell number was measured using a cell number measurement WST-8 kit (Kishida Chemical Co., Ltd.). As a control, the measurement was performed under conditions free of the test compound. The cytotoxic activity of the compound of the present invention against human prostate cancer LNCaP cells is shown in IC50 value in Table 1. The IC50 value is a concentration of the compound showing 50% cell survival rate when the cell survival rate thereof under compound untreated condition is 100%. It was calculated from the straight line connecting the cell survival rate at two points enclosing the 50% cell survival rate and the compound concentration. […]

[2] = test system: human colon cancer HCT116 cell; test: Cytotoxic action on HCT116 cells (WST-8, 96 hr); assay type: cell-based; settings: HCT-116, HCT116, 96 hr
Protocol: as §1

[3] = test system: human breast cancer ZR-75-1 cell; test: Cytotoxic action on ZR-75-1 cells (WST-8, 96 hr); assay type: cell-based; settings: ZR-75-1, 96 hr
Protocol: as §1

[4] = test system: human Burkitt lymphoma Raji cell; test: Cytotoxic action on Raji cells (WST-8, 96 hr); assay type: cell-based
Protocol: as §1

[5] = test system: human fibrosarcoma HT1080 cell; test: Cytotoxic action on HT1080 cells (WST-8, 96 hr); assay type: cell-based; settings: HT-1080, HT1080, 96 hr
Protocol: as §1

[6] = test system: human bile duct cancer HuCCT1 cell; test: Cytotoxic action on HuCCT1 cells (WST-8, 96 hr); assay type: cell-based; settings: HuCCT-1, HuCCT1, 96 hr
Protocol: as §1

[7] = test system: human T-cell leukemia Jurkat cells; test: Cytotoxic action on Jurkat cells (WST-8, 96 hr); assay type: cell-based
Protocol: as §1

[8] = test system: human ovarian cancer A2780 cell; test: Cytotoxic action on A2780 cells (WST-8, 96 hr); assay type: cell-based; settings: A2780, 96 hr
Protocol: as §1

[9] = test system: human glioma U-87 MG cell; test: Cytotoxic action on U-87 MG cells (WST-8, 96 hr); assay type: cell-based
Protocol: as §1

[10] = test system: human AR-V7 positive castration-resistant prostate cancer 22Rv1 cell; test: Cytotoxic action on 22Rv1 cells (WST-8, 96 hr); assay type: cell-based; settings: 22Rv1, 96 hr
Protocol: as §1

BRD4 protein = BRD4 protein (Homo sapiens (Human), UniProt O60885); test: Inhibitory action on binding of BRD4 protein and acetylated histone H4 (TR-FRET); settings: BRD4-1 (GST) and acetylated histone H4 peptide, 3 hr
Protocol: The inhibitory action of the compound of the present invention on the binding of BRD4 protein and a ligand thereof (acetylated histone H4) was evaluated by the time-resolved fluorescence resonance energy transfer (TR-FRET) method using EPIgeneous™ Binding Domain Kit A (Cisbio), BRD4-1 (GST) (Reaction Biology Corp) and [Lys(Ac)5/8/12/16]-Histone H4(1-21)-GGK (Biotin) (Eurogentec). In this experiment, (+)-JQ1 (Nature volume 468, pages 1067-1073 (23 Dec. 2010)) known to have an inhibitory activity on the binding of BRD4 protein and acetylated histone H4 therefor was used as a positive control drug. A test compound dissolved in DMSO was diluted with attached Diluent Buffer, added to a 384 well white plate, and BRD4-1 (GST) and [Lys(Ac)5/8/12/16]-Histone H4(1-21)-GGK (Biotin) were further added. Thereafter, Streptavidin-d2 conjugate and Anti-GST-Eu^3+ Cryptate Conjugate were added and the cells were incubated at room temperature for 3 hr. The binding amount of the BRD4 protein and acetylated histone H4 was measured as the fluorescence intensity (excitation: 314 nm/emission: 620 nm and excitation: 314 nm/emission: 665 nm). […] It was calculated from the straight line connecting the degradation rate at two points enclosing the 50% fluorescence intensity and the compound concentration.

[11] = test system: human uterus cervix cancer HeLa cell; test: Cytotoxic action on HeLa cells (WST-8, 96 hr); assay type: cell-based
Protocol: as §1

[12] = test system: human triple negative breast cancer MDA-MB-231 cell; test: Cytotoxic action on MDA-MB-231 cells (WST-8, 96 hr); assay type: cell-based; settings: MDA-MB-231, 96 hr
Protocol: as §1

[13] = Maximum tolerated dose in rats (single tail vein administration); settings: rat, in vivo, intravenous, male CD (SD) rats
Protocol: The maximum tolerated dose (MTD) in rats was determined for the compound of the present invention.

[14] = test system: human pancreatic cancer BxPC-3 cell; test: Cytotoxic action on BxPC-3 cells (WST-8, 96 hr); assay type: cell-based; settings: BxPC-3, 96 hr
Protocol: as §1

[15] = test system: human small cell lung cancer NCI-H82 cell; test: Cytotoxic action on NCI-H82 cells (WST-8, 96 hr); assay type: cell-based; settings: NCI-H82, 96 hr
Protocol: as §1

COC(=O)C[C@@H]1N=C(c2ccc(-c3ccc(C(=O)NCc4ccc(S(=O)(=O)Nc5ccc(C)c6c(C#N)c[nH]c56)cc4)cc3)cc2)c2c(sc(C)c2C)-n2c(C)nnc21 [Example 1, methyl [(6S)-4-{4′-[({4-[(3-cyano-4-methyl-1H-indol-7-yl)sulfamoyl]phenyl}methyl)carbamoyl][1,1′-biphenyl]-4-yl}-2,3,9-trimethyl-6H-thieno[3,2-f][1,2,4]triazolo[4,3-a][1,4]diazepin-6-yl]acetate]
IC50 [1]: 1.7 nM
IC50 [2]: 8.8 nM
IC50 [3]: 27 nM
IC50 [4]: 5.3 nM
IC50 [5]: 13 nM
IC50 [6]: 26 nM
IC50 [7]: 1.3 nM
IC50 [8]: 0.19 nM
IC50 [9]: 6 nM
IC50 [10]: 0.71 nM
IC50 (BRD4 protein): 29 nM
IC50 [11]: 27 nM
IC50 [12]: 4 nM
MTD [13]: > 10 mg/kg
IC50 [14]: 3.3 nM
IC50 [15]: 21 nM
